dyskinesia, seizures and Death rate data for two molecules are collected here from patent US20040117125A1, “Drug discovery method and apparatus” (priority 1999, published 2004).

In one data set the test system is MPTP-treated monkeys. Particulars: combined with L-Dopa or selective dopamine agonists (D1 or D2); cited from earlier work.
A further data set concerns GABA-A. The data set is described as follows: Fluridone/bicuculline in vivo GABA-A agonism/antagonism assay. Particulars: mice, bicuculline 5 mg/kg alone.

As for `CCn1c(=O)c2c(nc(/C=C/c3ccc(OC)c(OC)c3)n2C)n(CC)c1=O` [KW-6002], the dyskinesia entry in the data set with MPTP-treated monkeys was “does not induce dyskinesia”.
Turning to `CN1CCc2cc3c(cc2[C@H]1[C@@H]1OC(=O)c2c1ccc1c2OCO1)OCO3` [bicuculline], the seizures entry in the data set with GABA-A was “induced immediate seizures”. The same molecule showed a Death rate in the data set with GABA-A (within ten to twenty second after injection) of 100%.
